Data set [1] has as its target T1, α1A (rat submaxillary gland) (Rattus norvegicus, UniProt P43140).
T1 construct: α1A (rat submaxillary gland); from tissue; host or cells: rat submaxillary gland
T1 sequence (P43140 1-466): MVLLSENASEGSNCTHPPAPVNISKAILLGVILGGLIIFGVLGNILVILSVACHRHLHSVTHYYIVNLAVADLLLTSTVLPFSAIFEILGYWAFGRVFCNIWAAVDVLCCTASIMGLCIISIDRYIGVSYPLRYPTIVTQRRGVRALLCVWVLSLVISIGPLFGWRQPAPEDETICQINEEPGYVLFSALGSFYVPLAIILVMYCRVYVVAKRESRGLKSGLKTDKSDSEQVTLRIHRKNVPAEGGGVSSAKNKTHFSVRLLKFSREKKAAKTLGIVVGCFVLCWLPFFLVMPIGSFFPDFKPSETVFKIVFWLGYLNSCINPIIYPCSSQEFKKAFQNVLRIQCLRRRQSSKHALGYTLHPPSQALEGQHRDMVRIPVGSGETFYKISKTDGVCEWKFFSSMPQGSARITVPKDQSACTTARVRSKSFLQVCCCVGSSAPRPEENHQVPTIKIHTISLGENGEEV
Description: Radioligand binding with [3H]-prazosin, α1A. To be noted: rat submaxillary gland, [3H]-prazosin. An outline of the steps:
(§1)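 Radioligand binding with [3H]-prazosin: α1A from rat submaxillary gland; α1b hamster receptor and α1d rat receptor, each expressed in mouse fibroblasts.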

For data set [2], the target named is T2, α1b (hamster receptor expressed in mouse fibroblasts) (Mesocricetus auratus, UniProt P18841).
T2 construct: expressed in transfected cells; host or cells: mouse fibroblasts
T2 sequence (P18841 1-515): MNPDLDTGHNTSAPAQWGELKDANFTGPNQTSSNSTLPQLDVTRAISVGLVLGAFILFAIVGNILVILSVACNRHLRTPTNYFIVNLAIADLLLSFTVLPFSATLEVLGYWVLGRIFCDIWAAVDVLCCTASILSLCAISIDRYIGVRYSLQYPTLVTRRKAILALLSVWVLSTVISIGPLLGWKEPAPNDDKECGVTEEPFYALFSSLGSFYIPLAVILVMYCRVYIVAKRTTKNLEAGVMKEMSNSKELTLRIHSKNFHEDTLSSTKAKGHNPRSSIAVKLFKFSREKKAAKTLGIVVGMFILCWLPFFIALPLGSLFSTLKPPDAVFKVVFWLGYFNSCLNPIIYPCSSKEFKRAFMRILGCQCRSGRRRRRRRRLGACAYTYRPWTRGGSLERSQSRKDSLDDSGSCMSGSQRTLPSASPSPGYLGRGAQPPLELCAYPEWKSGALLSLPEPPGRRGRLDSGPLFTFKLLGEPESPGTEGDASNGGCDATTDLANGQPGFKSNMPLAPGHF
In words: Radioligand binding with [3H]-prazosin, α1b. The settings on record: hamster receptor expressed in mouse fibroblasts, [3H]-prazosin; read-out: Radioligand Binding Ki α1b (Hamster). The protocol:
For purposes of discussing α1 adrenoceptor subtypes, the IUPHAR convention of using lower case letters to define molecular clones and upper case letters to indicate pharmacologically defined adrenoceptors has been followed. Compounds of formula I were evaluated in radioligand binding assays specific for α1A (rat submaxillary gland), α1b (hamster receptor expressed in mouse fibroblasts) and α1d (rat receptor expressed in mouse fibroblasts) using [^3H]-prazosin as the radioligand as described in Knepper, et al. J. Pharm.

Data set [3] has as its target T3, α1d (rat receptor expressed in mouse fibroblasts) (Rattus norvegicus, UniProt P23944).
T3 construct: expressed in transfected cells; host or cells: mouse fibroblasts
T3 sequence (P23944 1-561): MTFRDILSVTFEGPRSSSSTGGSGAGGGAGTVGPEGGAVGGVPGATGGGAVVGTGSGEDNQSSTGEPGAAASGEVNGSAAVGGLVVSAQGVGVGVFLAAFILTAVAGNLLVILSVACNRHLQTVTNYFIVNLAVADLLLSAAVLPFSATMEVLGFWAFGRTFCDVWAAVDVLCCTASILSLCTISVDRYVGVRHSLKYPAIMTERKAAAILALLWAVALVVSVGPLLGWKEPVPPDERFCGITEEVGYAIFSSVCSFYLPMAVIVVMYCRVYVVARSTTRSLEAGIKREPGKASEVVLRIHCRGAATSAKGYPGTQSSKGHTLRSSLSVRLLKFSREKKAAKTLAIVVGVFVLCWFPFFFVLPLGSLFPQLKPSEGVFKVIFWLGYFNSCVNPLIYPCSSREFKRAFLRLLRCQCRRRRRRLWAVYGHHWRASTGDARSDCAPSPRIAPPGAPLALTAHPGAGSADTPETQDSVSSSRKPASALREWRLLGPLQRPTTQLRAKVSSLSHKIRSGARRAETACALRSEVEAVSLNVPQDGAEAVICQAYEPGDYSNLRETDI
Description: Radioligand binding with [3H]-prazosin, α1d. The settings on record: rat receptor expressed in mouse fibroblasts, [3H]-prazosin; read-out: Radioligand Binding Ki α1d (Rat). The procedure, abridged: as §1

The target of data set [4] is T4, α1B (rat spleen) (Rattus norvegicus, UniProt P15823).
T4 construct: α1B (rat spleen) and α1D (rat aorta) receptors; from tissue; host or cells: rat spleen
T4 sequence (P15823 1-515): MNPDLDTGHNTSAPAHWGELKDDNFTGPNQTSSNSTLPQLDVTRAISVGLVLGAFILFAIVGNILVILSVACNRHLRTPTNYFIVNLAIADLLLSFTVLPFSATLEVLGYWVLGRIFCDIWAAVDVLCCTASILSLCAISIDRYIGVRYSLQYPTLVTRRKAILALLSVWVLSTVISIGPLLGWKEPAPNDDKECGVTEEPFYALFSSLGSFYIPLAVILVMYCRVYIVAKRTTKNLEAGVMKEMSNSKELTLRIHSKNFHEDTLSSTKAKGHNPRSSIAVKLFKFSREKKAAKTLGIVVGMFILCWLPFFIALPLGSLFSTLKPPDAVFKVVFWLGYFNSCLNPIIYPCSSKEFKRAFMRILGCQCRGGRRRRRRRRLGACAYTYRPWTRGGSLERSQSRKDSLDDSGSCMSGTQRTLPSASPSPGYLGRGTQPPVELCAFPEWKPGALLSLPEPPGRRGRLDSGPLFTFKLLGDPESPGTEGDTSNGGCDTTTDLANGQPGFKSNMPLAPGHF
Description: Agonist contraction of smooth muscle tissue, rat spleen. It counts as cell-based. To be noted: rat spleen; read-out: Agonist Tissue Response (pD2) α1B (rat spleen) (converted).

Data set [5] concerns the target T5, α1D (rat aorta) (Rattus norvegicus, UniProt P23944).
T5 construct: α1B (rat spleen) and α1D (rat aorta) receptors; from tissue; host or cells: rat aorta strips, endothelium removed
T5 sequence (P23944 1-561): T3 sequence (P23944 1-561)
Description: Agonist contraction of smooth muscle tissue, rat aorta. It counts as cell-based. The settings on record: rat aorta, endothelium removed; read-out: Agonist Tissue Response (pD2) α1D (rat aorta) (converted).

Data set [6] has as its system Anesthetized Dogs. In words: Mean arterial pressure (MAP) in anesthetized dogs. The settings on record: iv dose causing a maximum increase in MAP of 20 mm Hg, anesthetized female dogs. It counts as in vivo, dog. The source says:
(§2) In vivo Functional Assays-Assessment of Intrurethral Pressure (IUP) and Mean Arterial Pressure (MAP) in Anesthetized Dogs
(§3) Female dogs (Marshall Farms, North Rose, N.Y.) greater that 2 years of age and weighing between 12 and 15 kg were used in these studies. At least 2 weeks prior to any agonist dosing, dogs were instrumented for the chronic measurement of arterial blood pressure by implanting a telemetry transducer/transmitter (TA11PA-C40, Data Sciences International, St. Paul, Minn.) into a carotid artery.
(§4) On the test day, dogs fasted since the previous afternoon were pre-anesthetized with thiopental sodium 15 mg/kg i.v. (Pentothal™, Abbott) and intubated. Anesthesia was maintained by allowing the dog to spontaneously breathe a mixture of isoflurane (2.5 to 3 volume %) and oxygen delivered by a Narkomed Standard anesthesia system (North American Drager, Telford, Pa.). An Abbocath-T™ i.v. catheter (18-G, Abbott) was inserted into the cephalic vein for the administration of agonists. A telemetry receiver (RA1310, DataSciences) was placed under the head of each dog and was interfaced to a computerized data acquisition system (Modular Instruments Inc.(MI2), Malvern, Pa.) which allowed for the continuous calibrated recording of arterial blood pressure which was electronically filtered to determine its mean value (MAP).
(§5) Dogs with chronic telemetry implants anesthetized as described above were placed in dorsal recumbency and a balloon catheter was inserted into the urethral orifice and advanced approximately 15 cm until the tip was well inside the bladder. The balloon was then inflated with 1 ml of room air and the catheter slowly withdrawn until resistance (corresponding to the bladder neck) was evident. The balloon was then deflated and the catheter withdrawn an additional 2 cm. The balloon was then reinflated and its catheter port connected to a Gould Statham P23Dd pressure transducer interfaced to a computerized data acquisition system (Modular Instruments, Inc., Malvern, Pa.) for the measurement of intraurethral pressure. Increasing iv doses of test agonists were administered and the maximum effect of each dose on IUP was recorded. The effect of each dose was allowed to return to baseline before the next dose was given.
(§6) From the resulting dose response curve, an ED5 value, for the dose causing a maximum increase in IUP of 5 mm Hg, could be estimated. An ED20 value for the dose causing a maximum increase in MAP of 20 mm Hg could also be estimated. A selectivity ratio of MAP ED20 vs. IUP ED5 was calculated.

For data set [7], the system named is Anesthetized Dogs. In words: Intraurethral pressure (IUP) in anesthetized dogs. It counts as in vivo, dog. To be noted: Canis lupus familiaris; iv dose causing a maximum increase in IUP of 5 mm Hg, anesthetized female dogs; read-out: Mean IUP ED5.
The target in data set [8] is T6, α1A (rabbit urethra) (Oryctolagus cuniculus, UniProt O02824).
T6 construct: tested for α1A functional activity using rabbit urethra; from tissue; host or cells: rabbit urethra
T6 sequence (O02824 1-466): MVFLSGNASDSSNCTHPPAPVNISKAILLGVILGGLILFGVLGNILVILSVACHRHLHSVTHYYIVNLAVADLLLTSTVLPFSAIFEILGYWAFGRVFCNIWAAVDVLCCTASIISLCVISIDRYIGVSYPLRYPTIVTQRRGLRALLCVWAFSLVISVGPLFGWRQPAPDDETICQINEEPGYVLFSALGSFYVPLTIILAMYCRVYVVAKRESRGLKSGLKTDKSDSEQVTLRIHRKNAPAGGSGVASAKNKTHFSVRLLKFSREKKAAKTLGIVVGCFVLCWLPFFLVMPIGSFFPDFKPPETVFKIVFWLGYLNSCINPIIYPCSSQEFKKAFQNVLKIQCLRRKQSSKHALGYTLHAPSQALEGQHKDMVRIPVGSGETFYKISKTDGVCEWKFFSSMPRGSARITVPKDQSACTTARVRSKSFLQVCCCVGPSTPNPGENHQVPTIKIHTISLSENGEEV
Description: Agonist contraction of smooth muscle tissue, rabbit urethra. It counts as cell-based. The settings on record: rabbit urethra; read-out: Agonist Tissue Response (pD2) α1A (rab ureth) (converted). The protocol:
Most of the compounds were tested for α1A functional activity using rabbit urethra as follows. Female New Zealand white rabbits (2.0-3.5 Kg) were sedated with CO2 and decapitated. […] Subsequent experimental conditions were as described above for the other tissues. Agonist concentration response curves were cumulative except for the vas deferens assay in which the transient response made such measurements impractical.

The subject of data set [9] is Anesthetized Dogs. In words: Intraurethral pressure (IUP) in anesthetized dogs. It counts as in vivo, dog. To be noted: anesthetized female dogs, iv.
Excerpt: as §2, §3, §4, §5, §6

Molecules are shown by their SMILES. Counter-ions that a name gives are not always drawn.

Usually melting point stands for the temperature of the solid-liquid transition. The term Ki denotes the equilibrium dissociation constant of an inhibitor or competing ligand from its target.

Turning to `COc1ccc(NS(C)(=O)=O)c2c1C(c1c[nH]cn1)CCC2` (centres unmarked) (as salt: maleate) [Example 26, N-[5,6,7,8-tetrahydro-(1H-imidazol-4-yl)-4-methoxyy-1-naphthalenyl]methanesulfonamide, maleate], the melting point was 181 to 184 °C.

Take `O=C(Nc1cccc2c1CCCC2c1c[nH]cn1)C(F)(F)F` (centres unmarked) (as salt: maleate) [Example 17, 2,2,2-trifluoro-N-[5-(1H-imidazol-4-yl)-5,6,7,8-tetahydro-1-naphthalenyl]acetamide, maleate]: the melting point is 181 to 182 °C.

Compound `C=C(c1cccc(NS(=O)(=O)CC)c1)c1c[nH]cn1` (as salt: maleate) [Example 45, N-{3-[1-(1H-imidazol-4-yl)vinyl]phenyly}ethanesulfonamide, maleate] had a melting point of 151 to 155 °C.

For the compound `CN(c1cccc2c1CCCC2c1c[nH]cn1)S(C)(=O)=O` (centres unmarked) (as salt: maleate) [Example 15, N-[5,6,7,8-tetrahydro-5-(1H-imidazol-4-yl)-1-naphthalenyl]-N-methylmethanesulfonmamide, maleate], the melting point lay in the range of 146 to 147 °C.

Regarding `Cl.Cn1cnc(C2CCCc3c(NS(C)(=O)=O)cccc32)c1` (centres unmarked) [Example 14, N-[5,6,7,8-tetrahydro-5-(1-methyl-1H-imidazol-4-yl)-1-naphthalenyl]methanesulfonamide, hydrochloride], the figures for the Ki in data set [1], in data set [2] and in data set [3] were 0.277 µM, 2.02 µM and 1.04 µM, respectively. Further, the EC50 in data set [4] and in [5] was > 1000 µM in each case. The “Mean MAP ED20” value in data set [6] is listed as >1000 nmol/kg. The ED (5 mmHg IUP increase) in data set [7] is > 1 µmol/kg.

Consider `O=S(=O)(CC(F)(F)F)Nc1cccc2c1CCCC2c1c[nH]cn1` (single isomer, unassigned; (+)) [Example 36, (+)-N-[5,6,7,8-tetrahydro-5-(1H-imidazol-4-yl)-1-naphthalenyl]-2,2,2-trifluoroethanesulfonamide], for which the Ki in data set [1] was determined as 0.124 µM. For the same compound, the EC50 in data set [8] is 1.86 µM. Besides, the “Mean Selectivity Ratio MAP ED20/IUP ED5” value in [9] is 3.6. For the same compound, the “Mean MAP ED20” value in data set [6] stood at 508 nmol/kg. Further, the ED (5 mmHg IUP increase) in [7] was determined as 0.156 µmol/kg.

Turning to `CCS(=O)(=O)Nc1cccc(Cc2c[nH]cn2)c1.O=C(O)/C=C\C(=O)O` [Example 30, N-[3-(1H-imidazol-4-ylmethyl)phenyl]ethanesulfonamide, maleate], the Ki is 0.135 µM in data set [1], 0.882 µM in data set [2] and 0.279 µM in data set [3]. Further, the results for the EC50 in data set [4] and in data set [5] were 0.692 µM and > 1000 µM, respectively. In [6], the “Mean MAP ED20” value was 80.5 nmol/kg. The ED (5 mmHg IUP increase) in data set [7] was 0.0121 µmol/kg.

Values taken from patent publication US6503935B1, “Imidazoles and related compounds as α1A agonists” (Abbott Laboratories, priority 1998, dated 2003).
